Values of other authors, collected in US5910307A, “Process of extracting and purifying biologically effective ingredients from combined medicinal plants and their extract composition” (priority 1996, dated 1999).

Legend:
[1] = tested on: biosynthesis of prostacyclin; settings: literature
[2] = tested on: chronic rheumatoid arthritis induced by Mycobacterium butyricum; settings: literature

Row | Structure (SMILES) | biosynthesis of prostacyclin generated in the metabolism of arachidonic acid [1] | anti-inflammatory and analgesic effects [2] | effect on chronic rheumatoid arthritis induced by Mycobacterium butyricum [2]
1 | O=C(/C=C/c1ccc(O)c(O)c1)O[C@H](Cc1ccc(O)c(O)c1)C(=O)O [rosmarinic acid] | inhibit | – | –
2 | CC1(C)CC[C@]2(C(=O)O)CC[C@]3(C)C(=CC[C@@H]4[C@@]5(C)CC[C@H](O)C(C)(C)[C@@H]5CC[C@]43C)[C@@H]2C1 [oleanolic acid] | – | remarkable anti-inflammatory and analgesic effects | effective
